# Values quoted from earlier work, collected in patent US20060153907A1, “Liposome formulations of boronic acid compounds” (priority 2004, published 2006).
# Test system: tumor lines
# Conditions: NCI in vitro screen
smiles,measurement,value
CC(C)C[C@H](NC(=O)[C@H](Cc1ccccc1)NC(=O)c1cnccn1)B(O)O [bortezomib],cytotoxicity against a range of tumor lines,showed cytotoxicity
